Source: patent US4487932A, “2,6-Dimethyl-3,5-bis-(1-adamantylhydr oxycarbonyl)-4-(2-difluoromethoxyphenyl)-1,4-dihydropyridine” (Institut Organicheskogo Sinteza Akademii Nauk Latviiskoi, priority 1983, dated 1984)
“Also recorded” adds a separate entry of the source. Read-outs that look alike come from different tables or passages of the source.

How the values were obtained:
[1] = test system: myocardial ischemia (partial occlusion of the coronary artery); experiment: rise of ST segment (epicardiac ECG) in partial occlusion of the coronary artery with superposition of a high artificial rhythm; type: in vivo, cats and dogs
[2] = test system: systolic arterial pressure; conditions: for lowering of the systolic arterial pressure: 1 hour after peroral administration; for lowering of the systolic arterial pressure / lowering of the arterial pressure: present compound 10 mg/kg; for lowering of the arterial pressure: in 5 hours after peroral administration
[3] = test system: white mice; experiment: in vivo
From the text: (§1) The studies of acute toxicity established the present compound to be low-toxic.
(§2) Acute toxicity of investigated compounds for
(§3) white mice upon intraperitoneal administration

[4] = in vivo; conditions: mouse, in vivo, ip
From the text: as §1, §2, §3

[5] = test system: arterial pressure; experiment: arterial pressure in rats of the line SHR, daily peroral administration during 10 days; type: in vivo
Experimental: The application of the present compound with daily peroral administration to rats of the line SHR in the dose of 20 mg/kg during 10 days causes lowering of the arterial pressure by 30-60 mm Hg during 24 hours. […] After the administration of the present compound was discontinued, the systolic arterial pressure gradually rose and reached the control group value in 3 days.

[6] = test system: myocardial ischemia (complete occlusion of the coronary artery); experiment: ischemic change in the heart in complete occlusion of the coronary artery; type: in vivo, dogs
[7] = stability in storage; type: physicochemical; conditions: conventional conditions
[8] = test system: venous blood outflowing from the coronary sinus of the heart; experiment: content of oxygen in venous blood outflowing from the coronary sinus; minute volume of the heart; type: in vivo, cats; conditions: 0.2 to 3 mg/kg
[9] = test system: arrhythmia caused by barium chloride; experiment: barium chloride arrhythmia in rabbits; type: in vivo
[10] = test system: arrhythmia and cardiac arrest caused by calcium chloride; experiment: calcium chloride model of arrhythmia in white mice; type: in vivo
[11] = test system: aconitic arrhythmia; experiment: aconitic model of arrhythmia in albino rats; type: in vivo; conditions: peroral and intravenous administration
[12] = test system: coronary circulation / cardiovascular system; conditions: for Duration: increase of coronary blood flow
From the text: The action of 2,6-dimethyl-3,5-bis-(1-adamantylhydroxycarbonyl)-4-(2-difluoromethoxyphenyl)-1,4-dihydropyridine on the cardiovascular system was investigated in experiments with cats, rats, and mice.

[13] = solubility; type: physicochemical; conditions: ethyl alcohol, chloroform, and other organic solvents and oils
[14] = white mice, intraperitoneal, present compound = 1
[15] = preliminary peroral, 2 to 10 mg/kg, barium chloride 4 mg/kg intravenously
[16] = narcotized cats, dose 0.05 mg/kg
[17] = narcotized cats, dose 0.50 mg/kg
[18] = narcotized cats, dose 2.00 mg/kg

In the case of `COC(=O)C1=C(C)NC(C)=C(C(=O)OC)C1c1ccccc1[N+](=O)[O-]` [Niphedipine, 2,6-dimethyl-4-o-nitrophenyl-3,5-dimethoxycarbonyl-1,4-dihydropyridine, reference compound], the “prevention of the rise of the ST segment” value ([1]; intravenous, 0.01 to 0.05 mg/kg, partial occlusion + high artificial rhythm) is reported as “only in an insignificant prevention of the rise of the ST segment”, the “lowering of the systolic arterial pressure” value [2] is reported as 51.7 mm Hg and the “lowering of the arterial pressure” value [2] is reported as 14 mm Hg.

For `CCN(CC)CCNC(=O)c1ccc(N)cc1` [Novocainamide (procainamide), reference compound], the Relative toxicity ([3]; mouse, in vivo, ip) was 28.9.

For `COc1ccc(Cc2nccc3cc(OC)c(OC)cc23)cc1OC` [Papaverine, reference compound], the Relative toxicity [3, 14] was 92.3.

In the case of `CC1=C(C(=O)OC23CC4CC(CC(C4)C2)C3)C(c2ccccc2OC(F)F)C(C(=O)OC23CC4CC(CC(C4)C2)C3)=C(C)N1` (stereo not shown) [Present compound, 2,6-dimethyl-3,5-bis-(1-adamantylhydroxycarbonyl)-4-(2-difluoromethoxyphenyl)-1,4-dihydropyridine], the LD50 [4] is reported as 8400 mg/kg, the Relative toxicity ([3]; mouse, in vivo, ip) is reported as 1 and the LD50 ([3]; white mice, intraperitoneal) is reported as 8400(6885.2-10248) mg/kg. The “toxicity relative to niphedipine” value ([3]; white mice, intraperitoneal) was 1/44, the “toxicity relative to quinidine” value ([3]; white mice, intraperitoneal) was 1/53 and the “time for systolic arterial pressure to reach the control group value after discontinuation” value ([5]; after daily peroral 20 mg/kg during 10 days) was 3 days. For the same molecule, the pulse frequency ([5]; daily peroral 20 mg/kg during 10 days) was “No increase of the pulse frequency was observed”, the “lowering of the arterial pressure” value ([5]; daily peroral 20 mg/kg during 10 days, during 24 hours) was 30-60 mm Hg and the myocardial ischemia ([6]; complete occlusion and also partial occlusion with high artificial rhythm, cats and dogs) was “diminishes myocardial ischemia”. The “ischemic change in the heart” value ([6]; dogs, preliminary administration, 0.5 to 2 mg/kg, complete occlusion) was “considerably diminished the ischemic change in the heart”, the stability in storage [7] was “stable when stored under conventional conditions” and the “effectiveness by ECG data (epicardium lead) compared with niphedipine and nitroglycerine” value ([1]; experiments with cats and dogs) was “more effective than niphedipine and nitroglycerine”. For the same molecule, the “effect compared with nitroglycerine” value ([1]; intravenous 0.3 to 2 mg/kg vs nitroglycerine 0.05 mg/kg) was “almost two times more durative and more pronounced than of nitroglycerine”, the “rise of the ST segment on epicardiac leads of the ECG” value ([1]; preliminary intravenous, 0.3 to 2 mg/kg, partial occlusion + high artificial rhythm) was “considerably diminishes, and in some cases even completely precludes a rise of the ST segment” and the “minute volume of the heart” value [8] was “somewhat increases”. For the same molecule, the “content of oxygen in venous blood outflowing from the coronary sinus” value ([8]; cats) was “increases the content of oxygen in venous blood; also recorded: increases the content of oxygen in the venous blood”, the “prophylactic and therapeutic effect on barium arrhythmia” value [9] was “prophylactic and therapeutic effect” and the alleviation of arrhythmia [9, 15] was “considerably alleviates arrhythmia”. For the same molecule, the shortening of arrhythmia [9, 15] was 2-5 times, the “antiarrhythmic activity compared with novocainamide (procainamide) and quinidine” value ([10]; calcium model of arrhythmia) was “in smaller doses, and in a more pronounced manner; also recorded: exceeds that of novocainamide (procainamide) and quinidine” and the “prevention of arrhythmia and cardiac arrest” value ([10]; peroral, 1 to 5 mg/kg, calcium chloride intravenous) was “prevents the appearance of arrhythmia and cardiac arrest”. For the same molecule, the “prophylactic and therapeutic activity on aconitic arrhythmia” value [11] was “considerable prophylactic and therapeutic activity; also recorded: prophylactic and therapeutic effect”, the “lowering of the systolic arterial pressure” value [2] was 31.5 mm Hg and the “lowering of the arterial pressure” value [2] was 8.6 mm Hg. The “lowering of arterial pressure compared with niphedipine” value ([2]; peroral 10 mg/kg) was “less pronounced than the action of niphedipine”, the “effect on arterial pressure, systemic venous pressure and aortal blood flow” value ([12]; 0.005 to 3 mg/kg) was “does not cause sharp drop of the arterial pressure, noticeable increase of the systemic venous pressure, or diminution of the aortal blood flow” and the “undesirable effects (sharp drop of arterial pressure, diminishing of arterial/aortal blood flow, increase of systemic venous pressure)” value ([12]; 0.05 to 3 mg/kg) was “causing no undesirable effects; also recorded: without causing such undesirable effects as sharp drop of the arterial pressure or pronounced diminishing of the aortal blood flow”. For the same molecule, the “duration of action compared with niphedipine” value ([12]; equiactive doses) was “twice as durative”, the “rising of the systemic venous pressure” value ([12]; large doses, intravenous administration) was “does not bring about rising of the systemic venous pressure” and the coronarodilating action ([12]; narcotized cats) was “pronounced coronarodilating action”. The “coronarodilating activity compared with niphedipine” value ([12]; narcotized cats) was “somewhat inferior to niphedipine in activity”, the “Change of aortal blood flow” value [12, 16] was “+5%” and the “Increase of space velocity of coronary blood flow” value (“Increase … of coronary blood flow” for short) [12, 16] was 10%. The “Lowering of arterial pressure” value [12, 16] was 0%, the Duration [12, 16] was 25 min and the “Change of aortal blood flow” value [12, 17] was “+12%”. For the same molecule, the “Change of systemic venous pressure” value [12, 17] was -10%, the “Increase … of coronary blood flow” value [12, 17] was 60% and the “Lowering of arterial pressure” value [12, 17] was 5%. The Duration [12, 17] was 50 min, the “Change of aortal blood flow” value [12, 18] was “+20%” and the “Change of systemic venous pressure” value [12, 18] was “+8%”. The “Increase … of coronary blood flow” value [12, 18] was 120%, the “Lowering of arterial pressure” value [12, 18] was 20% and the Duration [12, 18] was 90 min. For the same molecule, the solubility [13] was “readily soluble in ethyl alcohol, chloroform, and other organic solvents and oils”.

Molecule `C=C[C@H]1C[N@@]2CC[C@H]1C[C@@H]2[C@@H](O)c1ccnc2ccc(OC)cc12` [Quinidine, reference compound] has a Relative toxicity [3, 14] of 53.8.
